What was measured:
DA uptake = biological target: T1, DA uptake (Rattus norvegicus, UniProt P23977); assay: Inhibition of dopamine reuptake into rat brain synaptosomes; format: biochemical; conditions: functional monoamine uptake
T1 construct: norepinephrine (NE) and dopamine into similarly prepared synaptosomes; from tissue; host or cells: rat brain synaptosomes

5-HT Transporter [1] = biological target: 5-HT Transporter (Rattus norvegicus, UniProt P31652); assay: Rat 5-HT transporter IC50/Ki; format: binding
NE uptake = biological target: T2, NE uptake (Rattus norvegicus, UniProt Q63380); assay: Inhibition of norepinephrine reuptake into rat brain synaptosomes; format: biochemical; conditions: functional monoamine uptake
T2 construct: norepinephrine (NE) and dopamine into similarly prepared synaptosomes; from tissue; host or cells: rat brain synaptosomes

[2] = Sanchez and Hyttel 1999; cited from earlier work
5-HT Transporter [3] = biological target: 5-HT Transporter (Homo sapiens, UniProt P31645); format: binding
5-HT uptake = biological target: T3, 5-HT uptake (Rattus norvegicus, UniProt P31652); assay: Inhibition of reuptake of radiolabeled serotonin into rat brain synaptosomes; format: biochemical; conditions: functional monoamine uptake
T3 construct: synaptosomes prepared from various regions of rat brains; from tissue; host or cells: rat brain synaptosomes

DA Transporter = DA Transporter (Homo sapiens, UniProt Q01959); format: binding
NE Transporter = NE Transporter (Homo sapiens, UniProt P23975); assay: Human NE transporter IC50/Ki; format: binding
cytochrome P450 enzymes = conditions: P450 4A, 2C19, 2D6, 1A2, 2C9, 2E1; cited from earlier work
[4] = tested on: receptors for various neurotransmitters, enzymes, other reuptake sites; conditions: acetylcholine, histamine, norepinephrine, dopamine receptors, monoamine oxidase; cited from earlier work

5-HT Transporter (Homo sapiens, UniProt P31645), sequence (P31645 whole entry): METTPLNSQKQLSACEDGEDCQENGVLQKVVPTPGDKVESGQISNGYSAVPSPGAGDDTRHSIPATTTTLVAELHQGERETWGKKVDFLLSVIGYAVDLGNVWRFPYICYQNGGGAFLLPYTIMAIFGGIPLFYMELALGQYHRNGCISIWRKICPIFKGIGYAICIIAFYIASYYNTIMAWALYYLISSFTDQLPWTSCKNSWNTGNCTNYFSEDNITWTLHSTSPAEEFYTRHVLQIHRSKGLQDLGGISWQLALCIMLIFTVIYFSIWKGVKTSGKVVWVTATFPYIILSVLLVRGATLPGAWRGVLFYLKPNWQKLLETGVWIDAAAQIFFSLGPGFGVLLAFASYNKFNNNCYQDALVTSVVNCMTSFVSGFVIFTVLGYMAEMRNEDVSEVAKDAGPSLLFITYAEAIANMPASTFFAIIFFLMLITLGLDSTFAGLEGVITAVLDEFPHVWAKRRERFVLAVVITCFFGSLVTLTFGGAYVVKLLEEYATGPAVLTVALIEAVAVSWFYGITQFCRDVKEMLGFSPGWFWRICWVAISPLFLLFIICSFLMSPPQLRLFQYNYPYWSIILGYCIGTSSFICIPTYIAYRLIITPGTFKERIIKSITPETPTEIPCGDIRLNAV
5-HT Transporter (Rattus norvegicus, UniProt P31652), sequence (P31652 whole entry): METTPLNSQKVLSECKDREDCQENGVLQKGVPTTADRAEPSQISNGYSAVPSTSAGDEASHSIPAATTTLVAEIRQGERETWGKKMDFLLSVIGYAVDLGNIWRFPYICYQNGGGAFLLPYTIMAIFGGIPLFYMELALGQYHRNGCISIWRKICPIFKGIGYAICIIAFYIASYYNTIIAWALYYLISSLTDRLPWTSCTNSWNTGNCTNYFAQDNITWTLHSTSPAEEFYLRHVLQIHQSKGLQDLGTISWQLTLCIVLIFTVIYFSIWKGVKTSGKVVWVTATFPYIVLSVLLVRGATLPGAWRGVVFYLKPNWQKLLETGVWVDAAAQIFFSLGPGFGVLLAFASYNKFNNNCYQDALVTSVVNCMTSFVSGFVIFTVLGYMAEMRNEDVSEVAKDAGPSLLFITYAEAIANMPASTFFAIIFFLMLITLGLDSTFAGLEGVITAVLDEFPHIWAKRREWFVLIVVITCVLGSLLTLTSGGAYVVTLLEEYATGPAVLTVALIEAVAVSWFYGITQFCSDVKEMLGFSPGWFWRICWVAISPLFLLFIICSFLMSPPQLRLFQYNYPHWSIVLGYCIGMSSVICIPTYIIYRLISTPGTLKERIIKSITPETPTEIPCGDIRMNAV
T3 sequence (P31652 whole entry): as above
NE Transporter, sequence (P23975 whole entry): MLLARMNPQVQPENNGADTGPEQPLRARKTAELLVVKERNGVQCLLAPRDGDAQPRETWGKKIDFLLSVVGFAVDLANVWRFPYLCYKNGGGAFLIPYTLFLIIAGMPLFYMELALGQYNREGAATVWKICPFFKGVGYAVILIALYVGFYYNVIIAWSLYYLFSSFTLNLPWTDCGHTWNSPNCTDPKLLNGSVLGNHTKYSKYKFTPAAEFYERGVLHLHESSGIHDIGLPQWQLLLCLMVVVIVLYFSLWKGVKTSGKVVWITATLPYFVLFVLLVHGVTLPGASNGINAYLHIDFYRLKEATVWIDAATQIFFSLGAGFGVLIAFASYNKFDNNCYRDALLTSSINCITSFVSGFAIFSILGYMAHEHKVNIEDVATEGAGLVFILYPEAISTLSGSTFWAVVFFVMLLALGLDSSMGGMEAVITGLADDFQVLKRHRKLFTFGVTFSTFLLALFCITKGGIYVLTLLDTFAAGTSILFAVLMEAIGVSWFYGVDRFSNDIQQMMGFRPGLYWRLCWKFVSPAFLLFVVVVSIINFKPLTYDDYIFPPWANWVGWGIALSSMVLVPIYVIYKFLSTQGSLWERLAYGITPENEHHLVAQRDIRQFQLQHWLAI
DA Transporter, sequence (Q01959 whole entry): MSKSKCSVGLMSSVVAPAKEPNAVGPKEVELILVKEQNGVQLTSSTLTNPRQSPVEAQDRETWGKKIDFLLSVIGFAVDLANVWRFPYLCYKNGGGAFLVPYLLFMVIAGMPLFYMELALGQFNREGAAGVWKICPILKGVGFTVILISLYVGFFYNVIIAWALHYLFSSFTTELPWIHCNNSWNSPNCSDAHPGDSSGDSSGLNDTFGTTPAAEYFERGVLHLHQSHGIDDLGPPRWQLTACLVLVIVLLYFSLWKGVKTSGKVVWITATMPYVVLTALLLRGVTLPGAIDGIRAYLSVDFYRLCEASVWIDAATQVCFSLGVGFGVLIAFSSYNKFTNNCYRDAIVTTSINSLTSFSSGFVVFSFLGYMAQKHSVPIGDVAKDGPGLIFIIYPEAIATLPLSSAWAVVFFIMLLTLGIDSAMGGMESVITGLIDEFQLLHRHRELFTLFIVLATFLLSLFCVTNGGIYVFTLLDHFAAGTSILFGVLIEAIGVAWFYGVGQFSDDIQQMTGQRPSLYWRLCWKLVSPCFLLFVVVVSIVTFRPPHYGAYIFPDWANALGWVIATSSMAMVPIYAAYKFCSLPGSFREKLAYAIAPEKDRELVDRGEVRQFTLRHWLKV
T1 sequence (P23977 whole entry): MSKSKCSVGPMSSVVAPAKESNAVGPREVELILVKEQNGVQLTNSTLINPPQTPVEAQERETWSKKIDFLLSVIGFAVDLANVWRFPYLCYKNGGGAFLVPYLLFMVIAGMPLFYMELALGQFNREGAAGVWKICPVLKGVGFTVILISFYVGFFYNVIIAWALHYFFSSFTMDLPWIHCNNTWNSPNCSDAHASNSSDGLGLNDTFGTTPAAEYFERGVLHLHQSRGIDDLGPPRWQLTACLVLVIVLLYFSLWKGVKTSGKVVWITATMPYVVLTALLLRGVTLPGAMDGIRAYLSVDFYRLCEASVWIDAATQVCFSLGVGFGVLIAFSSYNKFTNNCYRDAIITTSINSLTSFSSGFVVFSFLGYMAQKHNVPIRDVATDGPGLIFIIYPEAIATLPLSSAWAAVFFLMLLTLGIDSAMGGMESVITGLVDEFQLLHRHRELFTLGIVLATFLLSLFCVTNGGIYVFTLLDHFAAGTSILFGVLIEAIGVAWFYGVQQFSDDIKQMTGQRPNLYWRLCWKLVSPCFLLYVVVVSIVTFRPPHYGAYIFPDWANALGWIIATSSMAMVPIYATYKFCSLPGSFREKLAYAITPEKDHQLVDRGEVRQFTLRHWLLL
T2 sequence (Q63380 1-617): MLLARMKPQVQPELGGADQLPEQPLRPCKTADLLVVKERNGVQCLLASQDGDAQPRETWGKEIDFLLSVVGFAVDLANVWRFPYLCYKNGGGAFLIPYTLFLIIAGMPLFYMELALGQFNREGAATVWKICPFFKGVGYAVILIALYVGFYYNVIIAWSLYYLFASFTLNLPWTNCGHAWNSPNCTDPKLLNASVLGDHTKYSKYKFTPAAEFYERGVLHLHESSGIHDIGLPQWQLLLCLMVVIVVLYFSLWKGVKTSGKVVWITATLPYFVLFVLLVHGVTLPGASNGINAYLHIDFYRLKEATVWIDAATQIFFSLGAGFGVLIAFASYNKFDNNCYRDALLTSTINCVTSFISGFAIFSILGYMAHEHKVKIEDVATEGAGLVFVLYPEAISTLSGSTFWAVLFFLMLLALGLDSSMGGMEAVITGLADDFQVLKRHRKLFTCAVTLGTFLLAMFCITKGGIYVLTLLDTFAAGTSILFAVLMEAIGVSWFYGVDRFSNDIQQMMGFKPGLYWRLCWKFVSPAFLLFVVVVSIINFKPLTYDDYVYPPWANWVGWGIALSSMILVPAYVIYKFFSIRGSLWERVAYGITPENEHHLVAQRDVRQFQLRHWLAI

Row | Molecule | IC50 (DA uptake) [µM] | IC50 (5-HT Transporter [1]) [µM] | Ki (5-HT Transporter [1]) [µM] | IC50 (NE uptake) [µM] | half-lives compared to citalopram [2] | IC50 (5-HT Transporter [3]) [µM] | Ki (5-HT Transporter [3]) [µM] | IC50 (5-HT uptake) [µM] | IC50 (DA Transporter) [µM] | Ki (DA Transporter) [µM] | IC50 (NE Transporter) [µM] | Ki (NE Transporter) [µM] | inhibition of cytochrome P450 enzyme activity (not by more than) (cytochrome P450 enzymes) | affinity for neurotransmitter receptors, enzymes and other reuptake sites [4]
1 | (−)-Desmethylcitalopram | 9.4 | 0.011 | 0.0023 | 1.7 | measurably longer | 0.042 | 0.017 | 0.11 | 37.6 | 17.1 | 0.815 | 0.756 | – | –
2 | N#Cc1ccc2c(c1)COC2(CCCN)c1ccc(F)cc1 (single isomer, unassigned; (-)) [(−)-Didesmethylcitalopram] | 2.7 | 0.027 | 0.0055 | 1.3 | measurably longer | 0.014 | 0.0058 | 0.13 | 38.9 | 17.8 | 5.52 | 5.12 | – | –
3 | N#Cc1ccc2c(c1)COC2(CCCN)c1ccc(F)cc1 (single isomer, unassigned; (+)) [(+)-Didesmethylcitalopram] | 11 | 0.019 | 0.0039 | 3.3 | measurably longer | 0.219 | 0.09 | 0.18 | 54.7 | 25 | 24.2 | 22.4 | – | –
4 | CN(C)CCCC1(c2ccc(F)cc2)OCc2cc(C#N)ccc21 (racemic) [Racemic Citalopram, (±)-1-(3-dimethylaminopropyl)-1-(4-fluorophenyl)-1,3-dihydroisobenzofuran-5-carbonitrile, reference compound] | – | – | – | 4.9 | – | – | – | – | – | – | – | – | mild degree | negligible affinity
5 | CNCCCC1(c2ccc(F)cc2)OCc2cc(C#N)ccc21 (racemic) [desmethylcitalopram, (±)-1-(3-methylaminopropyl)-1-(4-fluorophenyl)-1,3-dihydroisobenzofuran-5-carbonitrile] | – | – | – | – | – | – | – | – | – | – | – | – | mild degree | –
6 | CNCCCC1(c2ccc(F)cc2)OCc2cc(C#N)ccc21 (single isomer, unassigned; (+)) [(+)-Desmethylcitalopram] | 7.6 | 0.0013 | 0.00027 | 4.1 | – | – | – | 0.0058 | 27.7 | 12.7 | 10.3 | 9.57 | – | –

— patent US20040266864A1, “Methods for treating depression and other CNS disorders using enantiomerically enriched desmethyl-and didesmethyl-metabolites of citalopram” (Sepracor Inc., priority 2001, published 2004)
